From patent US20260016473A1 (priority 2022, published 2026)

Legend:
SARS-CoV2 Spike S1 = target: T1, SARS-CoV2 Spike S1 (Severe acute respiratory syndrome coronavirus 2, UniProt P0DTC2); assay type: biochemical, SARS-CoV-2
T1 construct: SARS-CoV2 Spike S1 (Product number: 40591-V08); purchased Sino Biological, Inc. 40591-V08

SARS-CoV2 Spike S2 = target: T2, SARS-CoV2 Spike S2 (Severe acute respiratory syndrome coronavirus 2, UniProt P0DTC2); assay type: biochemical, SARS-CoV-2
T2 construct: SARS-CoV2 Spike S2 (Product number: 40590-V08H1); purchased Sino Biological, Inc. 40590-V08H1

SARS-CoV2 Spike RBD = target: T3, SARS-CoV2 Spike RBD (Severe acute respiratory syndrome coronavirus 2, UniProt P0DTC2); assay type: biochemical, SARS-CoV-2
T3 construct: purchased Sino Biological, Inc. 40592-V08H

SARS-CoV Spike S1 = SARS-CoV Spike S1 (Severe acute respiratory syndrome coronavirus, UniProt P59594); assay type: biochemical
MERS-CoV Spike S1 = MERS-CoV Spike S1 (Middle East respiratory syndrome-related coronavirus, UniProt K9N5Q8); assay type: biochemical
human serum-derived IgA = assay type: biochemical
[1] = test system: α-amylase, Lactoferrin, Lysozyme, Mucin, EGF, IgA; assay type: biochemical

Chain of MERS-CoV Spike S1 (K9N5Q8 18-751 limits assumed): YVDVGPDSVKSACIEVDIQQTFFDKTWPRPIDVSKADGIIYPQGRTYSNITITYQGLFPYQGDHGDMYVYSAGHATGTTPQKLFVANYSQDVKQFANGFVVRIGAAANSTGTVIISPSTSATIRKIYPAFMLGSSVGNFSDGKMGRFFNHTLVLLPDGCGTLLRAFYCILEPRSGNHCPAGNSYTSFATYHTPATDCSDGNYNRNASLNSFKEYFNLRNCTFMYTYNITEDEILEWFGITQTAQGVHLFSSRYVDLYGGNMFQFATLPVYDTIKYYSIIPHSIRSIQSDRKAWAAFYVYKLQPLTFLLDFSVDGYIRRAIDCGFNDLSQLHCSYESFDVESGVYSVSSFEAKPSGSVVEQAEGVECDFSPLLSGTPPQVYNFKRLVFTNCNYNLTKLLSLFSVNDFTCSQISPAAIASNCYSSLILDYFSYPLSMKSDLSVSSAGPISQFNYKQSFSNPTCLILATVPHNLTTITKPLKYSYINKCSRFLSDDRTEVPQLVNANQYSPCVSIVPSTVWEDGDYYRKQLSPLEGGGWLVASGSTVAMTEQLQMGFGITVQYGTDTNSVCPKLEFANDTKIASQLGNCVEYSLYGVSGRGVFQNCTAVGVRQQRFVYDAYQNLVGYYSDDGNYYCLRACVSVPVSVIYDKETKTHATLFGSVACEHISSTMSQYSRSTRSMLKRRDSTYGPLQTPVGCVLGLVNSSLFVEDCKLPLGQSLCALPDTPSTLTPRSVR

## CCC(C)c1nc2c(CCCNC(=N)N)[nH]c(-c3c[nH]c4ccccc34)cn-2c1=O (centres unmarked) [Cypridina Luciferin]
SARS-CoV2 Spike S1
  luminescent reaction at S1: caused a luminescent reaction
  reaction with spike protein of SARS-CoV-2: reacted
SARS-CoV2 Spike S2
  luminescent reaction at S2: caused a luminescent reaction
SARS-CoV2 Spike RBD
  luminescent reaction at the RBD domain: did not cause a reaction at the PBD domain at all
SARS-CoV Spike S1
  reaction with spike protein of SARS-CoV: reacted
MERS-CoV Spike S1
  reaction with the protein of MERS-CoV: did not react
Human serum-derived IgA
  luminescent reaction with immunoglobulin protein IgA: did not cause a luminescent reaction
[1]
  luminescent reaction with various proteins: did not cause a luminescent reaction
